From ChEMBL document CHEMBL1201862, “PubChem BioAssay data set” (2004)
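Briefly, cells in 96-well plates were exposed to five compound concentrations for 48 h, and endpoints were estimated by linear interpolation. At the GI50, growth is halved.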 The source made the active and inactive calls. No stated cut-off is given here; in the data, active = GI50 up to about 1.1 µM and inactive = higher. Residues, ends and D or L forms follow the SMILES beside them. Groups on a side chain read outwards from the residue. *: point of attachment. Cbz = O=C(OCc1ccccc1)*; Boc = CC(C)(C)OC(=O)*

Columns and labels:
Test in all cases: NCI anticancer screen, dose series, 48 h
HCT-116 = test system: HCT-116
PC-3 = test system: PC-3
ACHN = test system: ACHN
SF-268 = test system: SF-268
OVCAR-3 = test system: OVCAR-3
SW-620 = test system: SW-620
A549 = test system: A549
SNB-19 = test system: SNB-19
HCC 2998 = test system: HCC 2998
SK-MEL-5 = test system: SK-MEL-5
DU-145 = test system: DU-145
UACC-257 = test system: UACC-257
COLO 205 = test system: COLO 205
MDA-MB-231 = test system: MDA-MB-231
NCI-H522 = test system: NCI-H522
K562 = test system: K562

SMILES	GI50 (HCT-116)	GI50 (PC-3)	GI50 (ACHN)	GI50 (SF-268)	GI50 (OVCAR-3)	GI50 (SW-620)	GI50 (A549)	GI50 (SNB-19)	GI50 (HCC 2998)	GI50 (SK-MEL-5)	GI50 (DU-145)	GI50 (UACC-257)	GI50 (COLO 205)	GI50 (MDA-MB-231)	GI50 (NCI-H522)	GI50 (K562)
O=C(CN1C(=O)c2ccccc2C1=O)C(O)CN1C(=O)c2ccccc2C1=O (stereo not given)	> 100 µM (inactive)	> 100 µM (inactive)	20 µM (inactive)	23.5 µM (inactive)	> 100 µM (inactive)	> 100 µM (inactive)	> 100 µM (inactive)	50.7 µM (inactive)	> 100 µM (inactive)	> 100 µM (inactive)	47.2 µM (inactive)	> 100 µM (inactive)	> 100 µM (inactive)	22.5 µM (inactive)	> 100 µM (inactive)	–
O=C(CSC1=NC(=O)C2(NN1)c1ccccc1-c1ccccc12)NC(=S)Nc1ccccc1	> 10 µM (inactive)	> 10 µM (inactive)	1.81 µM (inactive)	> 10 µM (inactive)	–	> 10 µM (inactive)	> 10 µM (inactive)	> 10 µM (inactive)	> 10 µM (inactive)	> 10 µM (inactive)	> 10 µM (inactive)	> 10 µM (inactive)	> 10 µM (inactive)	> 10 µM (inactive)	7.03 µM (inactive)	> 10 µM (inactive)
NC(=O)N/N=C1\CCCCc2ccccc21	> 10 µM (inactive)	> 10 µM (inactive)	> 10 µM (inactive)	> 10 µM (inactive)	> 10 µM (inactive)	> 10 µM (inactive)	> 10 µM (inactive)	> 10 µM (inactive)	> 10 µM (inactive)	–	> 10 µM (inactive)	> 10 µM (inactive)	> 10 µM (inactive)	> 10 µM (inactive)	> 10 µM (inactive)	> 10 µM (inactive)
COc1cccc(OCC(=N/NC(=O)c2ccncc2)/N=C/c2cccnc2)c1	> 100 µM (inactive)	> 100 µM (inactive)	> 100 µM (inactive)	> 100 µM (inactive)	> 100 µM (inactive)	> 100 µM (inactive)	> 100 µM (inactive)	> 100 µM (inactive)	> 100 µM (inactive)	–	> 100 µM (inactive)	> 100 µM (inactive)	> 100 µM (inactive)	> 100 µM (inactive)	> 100 µM (inactive)	> 100 µM (inactive)
N#C/C(=C\c1cn(Cc2ccccc2)c2ccccc12)c1nn(-c2ccccc2)c(N)c1C#N	16.4 µM (inactive)	8.22 µM (inactive)	18.7 µM (inactive)	24.9 µM (inactive)	18.2 µM (inactive)	14.8 µM (inactive)	11.2 µM (inactive)	13.6 µM (inactive)	–	11 µM (inactive)	11.1 µM (inactive)	20.1 µM (inactive)	20.1 µM (inactive)	4.13 µM (inactive)	13.2 µM (inactive)	24.3 µM (inactive)
CCc1cc2c(oc3cc(C)ccc32)c(=O)n1C	> 10 µM (inactive)	> 10 µM (inactive)	> 10 µM (inactive)	> 10 µM (inactive)	> 10 µM (inactive)	> 10 µM (inactive)	> 10 µM (inactive)	> 10 µM (inactive)	> 10 µM (inactive)	–	> 10 µM (inactive)	> 10 µM (inactive)	–	> 10 µM (inactive)	> 10 µM (inactive)	> 10 µM (inactive)
N/C1=C/C(=O)NC(=O)c2c(c3ccccc3oc2=O)C1	> 100 µM (inactive)	> 100 µM (inactive)	> 100 µM (inactive)	> 100 µM (inactive)	> 100 µM (inactive)	> 100 µM (inactive)	> 100 µM (inactive)	> 100 µM (inactive)	> 100 µM (inactive)	–	> 100 µM (inactive)	> 100 µM (inactive)	> 100 µM (inactive)	> 100 µM (inactive)	> 100 µM (inactive)	> 100 µM (inactive)
C/C(=N\NC(=S)NCCCCNC(=S)N/N=C(\C)c1ccccn1)c1ccccc1	0.331 µM (active)	3.02 µM (inactive)	0.601 µM (active)	0.394 µM (active)	0.424 µM (active)	–	1.66 µM (inactive)	> 24.8 µM (inactive)	1.66 µM (inactive)	0.714 µM (active)	0.979 µM (active)	1.78 µM (inactive)	0.832 µM (active)	5.09 µM (inactive)	1.15 µM (inactive)	2.25 µM (inactive)
CCN1CC2(COC)C(O)CC(OC)C34C5CC6(O)C(OC)C=C(C5C6OC(=O)c5ccc(OC)c(OC)c5)C(C(OC)C23)C14 (stereo not given)	> 7.5 µM (inactive)	> 7.5 µM (inactive)	> 7.5 µM (inactive)	> 7.5 µM (inactive)	–	> 7.5 µM (inactive)	> 7.5 µM (inactive)	> 7.5 µM (inactive)	> 7.5 µM (inactive)	> 7.5 µM (inactive)	> 7.5 µM (inactive)	> 7.5 µM (inactive)	> 7.5 µM (inactive)	> 7.5 µM (inactive)	> 7.5 µM (inactive)	> 7.5 µM (inactive)
OC(c1cc2ccc(C(F)(F)F)cc2c2cc(C(F)(F)F)ccc12)C1CCCCN1 (stereo not given)	1.46 µM (inactive)	1.58 µM (inactive)	1.33 µM (inactive)	1.64 µM (inactive)	1.63 µM (inactive)	1.49 µM (inactive)	1.8 µM (inactive)	1.84 µM (inactive)	1.3 µM (inactive)	1.56 µM (inactive)	1.8 µM (inactive)	1.56 µM (inactive)	1.59 µM (inactive)	1.73 µM (inactive)	1.7 µM (inactive)	1.55 µM (inactive)
COc1cc(OC)cc(Oc2nc3ccccc3nc2C(=O)O)c1	> 100 µM (inactive)	> 100 µM (inactive)	> 100 µM (inactive)	> 100 µM (inactive)	> 100 µM (inactive)	> 100 µM (inactive)	> 100 µM (inactive)	> 100 µM (inactive)	> 100 µM (inactive)	> 100 µM (inactive)	> 100 µM (inactive)	> 100 µM (inactive)	> 100 µM (inactive)	> 100 µM (inactive)	> 100 µM (inactive)	> 100 µM (inactive)
CC1(C)CCCC2(C)C3=C(CCC12)C(=O)OC3 (stereo not given)	> 100 µM (inactive)	> 100 µM (inactive)	> 100 µM (inactive)	> 100 µM (inactive)	> 100 µM (inactive)	> 100 µM (inactive)	> 100 µM (inactive)	–	> 100 µM (inactive)	42.7 µM (inactive)	> 100 µM (inactive)	> 100 µM (inactive)	> 100 µM (inactive)	> 100 µM (inactive)	> 100 µM (inactive)	–
O=C1c2ccccc2-c2nc(-c3cccs3)cc3c2c1nc1ccccc13	14.3 µM (inactive)	12.6 µM (inactive)	34.4 µM (inactive)	12.5 µM (inactive)	2.3 µM (inactive)	13.8 µM (inactive)	9.29 µM (inactive)	35.9 µM (inactive)	16.7 µM (inactive)	–	14.1 µM (inactive)	14.1 µM (inactive)	13.2 µM (inactive)	58.3 µM (inactive)	12.7 µM (inactive)	13.5 µM (inactive)
c1ccc(Cc2cccc3cc(-c4ccc(-c5ccccc5)cc4)[nH]c23)cc1	> 100 µM (inactive)	61.9 µM (inactive)	> 100 µM (inactive)	32.7 µM (inactive)	> 100 µM (inactive)	92 µM (inactive)	76.7 µM (inactive)	93.3 µM (inactive)	95.1 µM (inactive)	> 100 µM (inactive)	54.6 µM (inactive)	> 100 µM (inactive)	> 100 µM (inactive)	99.5 µM (inactive)	17.2 µM (inactive)	–
Cc1c(C)c(C)c(-n2c(=O)n(C)c(=O)n2-n2c(=O)n(C)c(=O)n2-c2c(C)c(C)c(C)c(C)c2C)c(C)c1C	> 100 µM (inactive)	> 100 µM (inactive)	–	> 100 µM (inactive)	> 100 µM (inactive)	> 100 µM (inactive)	> 100 µM (inactive)	> 100 µM (inactive)	> 100 µM (inactive)	> 100 µM (inactive)	> 100 µM (inactive)	> 100 µM (inactive)	> 100 µM (inactive)	> 100 µM (inactive)	44.2 µM (inactive)	> 100 µM (inactive)
COc1ccc(N2C(=O)/C(=C\c3cccc(Oc4ccccc4)c3)S(=O)(=O)C2c2ccccc2)cc1 (stereo not given)	20.4 µM (inactive)	56 µM (inactive)	98.9 µM (inactive)	–	28.1 µM (inactive)	60.8 µM (inactive)	31.5 µM (inactive)	47 µM (inactive)	> 100 µM (inactive)	16.3 µM (inactive)	38.3 µM (inactive)	26.1 µM (inactive)	64.1 µM (inactive)	85.1 µM (inactive)	12.3 µM (inactive)	16.4 µM (inactive)
CC(C)(C)OC(=O)NC(CCCCNC(=O)CNC(=O)OCc1ccccc1)C(=O)NC(CCCCNC(=O)CNC(=O)OCc1ccccc1)C(=O)NC(CCCCNC(=O)CNC(=O)OCc1ccccc1)C(=O)NC(CCCCNC(=O)CNC(=O)OCc1ccccc1)C(=O)O (stereo not given) (Boc-K([Gly-Cbz])K([Gly-Cbz])K([Gly-Cbz])K([Gly-Cbz])-OH; configuration not given here)	> 100 µM (inactive)	> 100 µM (inactive)	> 100 µM (inactive)	> 100 µM (inactive)	> 100 µM (inactive)	> 100 µM (inactive)	> 100 µM (inactive)	> 100 µM (inactive)	> 100 µM (inactive)	> 100 µM (inactive)	> 100 µM (inactive)	> 100 µM (inactive)	–	> 100 µM (inactive)	> 100 µM (inactive)	> 100 µM (inactive)
